Assays:
[1] = target: T1, AChE from Electrophorus electricus (eelAChE) type VI-S (Electrophorus electricus, UniProt O42275); experiment: biochemical; conditions: for mechanism of inhibition: double-reciprocal (Lineweaver-Burk) plots; for IC50 / Ki: eelAChE-ICER; for IC50: 20 μL ACh stock 500 μM in 100 μL reaction mixture, non-linear regression; for Ki: ACh 10 to 150 μM, inhibitor 0, 10, 50 and 75 μM, Lineweaver-Burk replot, read-out: Ki (steady-state inhibition constant); for inhibition: pH 8, 10 μL of 1.0 mM compound stock in 100 μL reaction mixture, read-out: % Inhibition eelAChE-ICER
T1 construct: purchased Sigma-Aldrich type VI-S
Experimental: AChE from Electrophorus electricus (type VI-S) was immobilized in a fused-silica capillary tube (eelAChE-ICER) according to a previously reported protocol (Vanzolini et al., [2013]). An enzyme solution containing 2 units/mL eelAChE was used in the immobilization procedure. The LC-MS system was set up for the eelAChE-ICER as previously described (Vanzolini et al., [2013]). The mobile phase (15 mM ammonium acetate solution, pH 8.0) was infused by pump 1 at a flow rate of 50 μL/min and pump 2 delivered acetonitrile after the eelAChE-ICER at a flow rate of 50 μL/min. IT-MS parameters were: 3,713 V capillary voltage, 500 V end plate voltage, […] drying gas, 300°C drying temperature and 30 psi nebulizer. In addition, ACh ([M+H]^+ m/z 146) and Ch ([M+H]^+ m/z 104), were analyzed by MS operating in the manual MS^n mode under positive ionization (scan 50–550 m/z). Enzymatic activity was quantified using a Ch standard external calibration curve prepared in 15 mM ammonium acetate solution, pH 8.0 with the final concentration ranging from 5 to 350 μM. An aliquot (10 μL) of each solution was injected in triplicate into the system using an empty fused silica capillary. The calibration curve was obtained by plotting the Ch [M+H]^+ m/z 104 area against the injected Ch concentration.
Stock solutions of each compound were prepared in methanol at 1.0 mM. The enzymatic activity of eelAChE-ICER was measured in the presence and absence of each compound. Reactions mixtures were prepared by mixing 20 μL of ACh stock solution (350 μM, in 15mM ammonium acetate solution, pH 5.0) with 10 μL of methanol or stock solution of compounds (1.0 mM) and 70 μL ammonium acetate solution (15mM, pH 8.0). Each reaction mixture (10 μL) was injected into the LC-MS system. The percentage of inhibition (%I) was calculated by comparing the product peak area in the presence of tested compound with positive control (absence of inhibitors).
Final volumes were completed with 70 μL ammonium acetate solution (15mM, pH 8.0) and each reaction mixture (10 μL) was injected into the LC-MS system. The inhibition curve was obtained for each sample by plotting the percentage of inhibition vs. each corresponding inhibitor concentration, and the IC50 values were achieved by non-linear regression analysis using GraphPad Prism 5 software.
For this purpose, the eelAChE-ICER activity was evaluated under different concentrations of ACh (10 to 150 μM) and at the fixed concentration of derivative 1a and 1b (0, 10, 50, and 75 μM). Lineweaver-Burk plots were used to determine the action mechanism for the inhibitors.
A linear replot was obtained, and the division quotient between the linear and angular coefficients provided the Ki values.

[2] = test system: AChE; parameters: method as in Loizzo et al., 2008; conditions: AChE inhibition; ref Loizzo et al., 2008; cited from earlier work
[3] = 20 μL ACh stock 350 μM, ammonium acetate 15 mM pH 8.0

T1 sequence (O42275 24-633): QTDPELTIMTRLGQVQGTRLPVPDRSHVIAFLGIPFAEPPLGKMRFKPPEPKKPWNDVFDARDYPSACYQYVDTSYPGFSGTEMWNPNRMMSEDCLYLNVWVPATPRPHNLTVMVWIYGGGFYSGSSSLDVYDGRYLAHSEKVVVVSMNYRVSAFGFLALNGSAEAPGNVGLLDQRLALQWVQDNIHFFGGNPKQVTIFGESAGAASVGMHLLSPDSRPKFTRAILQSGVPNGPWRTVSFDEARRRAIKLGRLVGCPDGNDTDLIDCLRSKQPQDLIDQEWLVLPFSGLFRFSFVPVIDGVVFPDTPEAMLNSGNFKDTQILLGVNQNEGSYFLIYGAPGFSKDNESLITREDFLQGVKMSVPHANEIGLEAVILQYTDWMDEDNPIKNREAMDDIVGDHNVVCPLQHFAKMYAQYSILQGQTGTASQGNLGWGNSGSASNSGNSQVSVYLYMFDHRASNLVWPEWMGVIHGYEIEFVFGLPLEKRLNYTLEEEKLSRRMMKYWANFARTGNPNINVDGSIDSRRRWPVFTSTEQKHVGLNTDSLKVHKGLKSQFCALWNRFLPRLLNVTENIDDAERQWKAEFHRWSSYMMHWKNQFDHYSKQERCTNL

Compound: COc1cc2c(cc1O)[C@@H]1Cc3ccc(O)c(OC)c3C[N@@+]1(Cc1ccccc1)CC2 [1b, (7S,13aS)-7-benzylstepholidine]
- mechanism of inhibition [1]: non-competitive
- IC50 [1]: 51.9 ± 1 µM
- Ki [1]: 4.7 µM
- inhibition [1, 3]: 90.5 ± 2.48%

Compound: COc1cc2c(cc1OCc1ccccc1)[C@@H]1Cc3ccc(O)c(OC)c3CN1CC2 [1c, (S)-2-O-benzylstepholidine]
- inhibition [1, 3]: 35.2 ± 5.02%

Compound: COc1cc2c(cc1O)[C@@H]1Cc3ccc(OCc4ccccc4)c(OC)c3CN1CC2 [1d, (S)-10-O-benzylstepholidine]
- inhibition [1, 3]: 46.3 ± 5.45%

Compound: COc1cc2c(cc1O)C1Cc3ccc(O)c(OC)c3C[N+]1(C)CC2 (stereo not shown) [N-methyl stepholidine]
- IC50 [2]: 31.3 µM

Compound: COc1cc2c(cc1O)[C@@H]1Cc3ccc(O)c(OC)c3CN1CC2 [Stepholidine, stepholidine, reference compound]
- % Inhibition eelAChE-ICER ([1]; 10 μL of 1.0 mM compound stock in 100 μL reaction mixture, 20 μL ACh stock 350 μM, ammonium acetate 15 mM pH 8.0): 40.2 ± 1.65%
- inhibition [1, 3]: < 50%
- IC50 [2]: > 100 µM

Compound: COc1cc2c(cc1O)[C@@H]1Cc3ccc(O)c(OC)c3C[N@+]1(Cc1ccccc1)CC2 [1a, (7R,13aS)-7-benzylstepholidine]
- mechanism of inhibition [1]: non-competitive
- IC50 [1]: 40.6 ± 1 µM
- Ki [1]: 11.6 µM
- inhibition [1, 3]: 90.1 ± 2.04%

Compound: COc1cc2c(cc1O)-c1cc3ccc(O)c(OC)c3c[n+]1CC2 [stepharanine]
- IC50 [2]: 14.1 µM

Compound: COc1cc2c(cc1OCc1ccccc1)[C@@H]1Cc3ccc(OCc4ccccc4)c(OC)c3CN1CC2 [1e, (S)-O, O-dibenzylstepholidine]
- inhibition [1, 3]: 43.6 ± 2.54%

Source: PMC6760013, “Synthesis and Inhibition Evaluation of New Benzyltetrahydroprotoberberine Alkaloids Designed as Acetylcholinesterase Inhibitors” (Frontiers in Chemistry, 2019)
